Assay results reported in ChEMBL document CHEMBL2034901, “Novel 3,6,7-substituted pyrazolopyrimidines as positive allosteric modulators for the hydroxycarboxylic acid receptor 2 (GPR109A)” (J Med Chem, 2012).

Columns and labels:
[1] = biological target: Hydroxycarboxylic acid receptor 2 (Homo sapiens) (UniProt Q8TDS4); assay: Positive allosteric activity at GPR109A in human HEK cells assessed as shift in EC50 of nicotinic acid at 3 uM pretreated for 30 mins measured after 90 mins by [35S]-GTPgammaS binding assay; type: functional, cell-based; conditions: HEK293
[2] = biological target: Hydroxycarboxylic acid receptor 2 (Homo sapiens) (UniProt Q8TDS4); assay: Positive allosteric activity at GPR109A in human HEK cells assessed as shift in EC50 of nicotinic acid at 1 uM pretreated for 30 mins measured after 90 mins by [35S]-GTPgammaS binding assay; type: functional, cell-based; conditions: HEK293

Sequence of Hydroxycarboxylic acid receptor 2 (Homo sapiens) (Q8TDS4 whole entry): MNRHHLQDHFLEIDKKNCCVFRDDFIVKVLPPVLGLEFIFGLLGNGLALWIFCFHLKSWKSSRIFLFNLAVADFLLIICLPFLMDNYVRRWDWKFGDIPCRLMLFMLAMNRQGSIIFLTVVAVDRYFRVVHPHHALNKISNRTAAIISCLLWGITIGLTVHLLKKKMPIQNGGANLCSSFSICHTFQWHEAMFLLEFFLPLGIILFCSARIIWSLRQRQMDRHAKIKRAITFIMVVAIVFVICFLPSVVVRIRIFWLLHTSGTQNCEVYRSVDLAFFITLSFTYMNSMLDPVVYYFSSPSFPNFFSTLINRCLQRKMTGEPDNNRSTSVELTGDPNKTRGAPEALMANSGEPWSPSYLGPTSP

Emax [1] [%]	Emax [2] [%]	SMILES
114	–	Cc1c(C(=O)NCCOc2ccccc2)cnc2c(-c3ccc(Cl)c(Cl)c3)cnn12
123	111	Cc1c(C(=O)NCCOc2ccccc2)cnc2c(-c3ccc(OC(C)C)cc3)cnn12
129	122	CCc1c(C(=O)NCCOc2ccccc2)cnc2c(-c3ccc(C(C)C)cc3)cnn12
129	120	Cc1c(C(=O)NCCNc2ccccc2)cnc2c(-c3ccc(C(C)C)cc3)cnn12
